Measured values from US20250066287A1, “PHASE CHANGE AROMATIC AZO COMPOUNDS, METHOD OF MANUFACTURE, AND USE AS HOMOGENOUS CATALYST” (priority 2023, published 2025).
“And” between values parts separate entries of the source, which are not always exact repeats. Identical values can stand only once. Like-named read-outs stand apart in the source and are kept apart here. Each block holds one molecule with its values, some of them ahead of it.

Tests used:
[1] = Thermal reversion kinetics measurements (Z-to-E); assay type: physicochemical; conditions: 1 in MeCN, 2 in MeOH; for τ1/2 (thermal half-life of Z isomer): Z-to-E thermal reversion at 298 K (room temperature); for ΔG^‡ / ΔH^‡ / ΔS‡: thermal isomerization of Z isomers at 298 K
Method: Thermal reversion kinetics measurements. The thermal half-life of compounds 1 and 2 were determined by following a reported procedure (G. D. Han, et all., J. Mater. Chem. A 2016, 4, 16157-16165). A solution of compounds 1 or 2 (˜1.7×10^−5 M) were prepared in MeCN and MeOH, respectively, then irradiated at 340 nm to obtain a Z-rich solution at photostationary state (PSS), which was then heated at three different elevated temperatures (compound 1: 333 K, 338 K, 343 K; compound 2: 318 K, 323 K, 328 K) in dark.

[2] = Kinetic tests of Henry reaction; conditions: for product yield: pre-activated Z, 24 hours; for rate constant kZ: pre-activated soluble Z
[3] = Absorption coefficient of reactants, products and catalysts (UV-Vis); assay type: physicochemical
Method: Ultraviolet-visible (UV-Vis) absorption spectra were obtained with a Cary 50 Bio UV-Vis spectrophotometer in a UV Quartz cuvette with a path length of 10 mm. Compounds were dissolved in solvents at a concentration of 0.0125 mg/ml unless otherwise specified. The UV-Vis absorption was first recorded in dark for 5 min, then samples were irradiated with a specified wavelength until no change in their absorbance was observed. Samples were irradiated with Thorlabs LEDs: M340L4 (340 nm, 2.22 μW/mm^2, 60 mW), M430L4 (430 nm, 35.3 μW/mm^2, 600 mW). […]

[4] = Solvent screening for reversible solubility changes; conditions: 0.5 mg in 1 mL; irradiation of 340 nm and 430 nm
Method: To determine solubility, 0.5 mg of compounds were added to 1 mL of common solvents (1-MeOH, 2-acetonitrile (MeCN), 3-acetone, 4-THF, 5-hexane, 6-EtOAc, 7-DMF, 8-DMSO, and 9-toluene, respectively). […] The samples with suspensions were then stirred overnight under 340 nm irradiation. […] These samples were then stirred for 4 hours under 430 nm to trigger the precipitation of the compounds.

[5] = Photoswitching between E and Z (UV-vis, photostationary state); assay type: physicochemical; conditions: dilute solution; compound 1 in acetonitrile, compound 2 in methanol
Method: To find solvents in which the ratio between the maximum concentrations of Z and E isomers at the respective photostationary state (PSS) (i.e., r=[Z]max/[E]max) is the greatest, a solvent screening test for each compound was performed (FIGS. 21-24).
Ultraviolet-visible (UV-Vis) absorption spectra were obtained with a Cary 50 Bio UV-Vis spectrophotometer in a UV Quartz cuvette with a path length of 10 mm. Compounds were dissolved in solvents at a concentration of 0.0125 mg/ml unless otherwise specified. The UV-Vis absorption was first recorded in dark for 5 min, then samples were irradiated with a specified wavelength until no change in their absorbance was observed. Samples were irradiated with Thorlabs LEDs: M340L4 (340 nm, 2.22 μW/mm^2, 60 mW), M430L4 (430 nm, 35.3 μW/mm^2, 600 mW).

[6] = Light-induced precipitation of catalysts from pristine solvent; assay type: physicochemical; conditions: within 10 min of 430 nm irradiation; 1 in acetonitrile, 2 in methanol
Method: FIG. 6 and FIG. 25 illustrate the efficiencies of 430 nm induced catalyst precipitation and recovery for compounds 1 and 2, which were obtained by weighing the filtered precipitates after irradiation. […] The full recovery of the catalysts is limited by the PSS ratios of compounds at 430 nm (82% for 1- E and 84% for 2-E).
Light-induced precipitation of catalysts. To determine light-induced precipitation of catalysts, 44 mg of compound 1 and 34 mg of compound 2 were added to 2 mL of acetonitrile and methanol, respectively. The suspensions were irradiated at 340 nm overnight to obtain clear Z solutions. Then, the solutions were irradiated at 430 nm and monitored over 10 min.

[7] = Michael addition in acetonitrile; in 10 hours
Method: For compound 1: To a solution of trans-β-nitrostyrene (11.1 mg, 7.5 μmol) and acetylacetone (7.6 mg, 7.5 μmol) in MeCN (0.25 mL) was added either insoluble E isomer or pre-activated Z isomer of compound 1 (5.4 mg, 0.75 μmol). Three identical samples were prepared. 0.2 mL of the solution was taken to check the product yield via ^1H NMR at each time point.

[8] = Cycling tests of Michael addition reaction; conditions: Michael addition in acetonitrile; after the subsequent two reactions with recovered catalyst, 10 mol % loading
[9] = Cycling tests of Henry reaction; conditions: acetonitrile
[10] = Quantification of solubility of E and Z isomers in select solvents; conditions: for Isomer (% E): saturated solution after 340 nm irradiation
Method: Quantification of solubility. […] The mixtures were sonicated for 5 min. The obtained suspensions were filtered with a PTFE filter to remove the excess solids. The solvents in clear filtrates were removed using a rotary evaporator and the solutes were dried under vacuum overnight.
wherein [Z]max and [E]max are the maximum concentration of the Z-isomer and the E-isomer, respectively.

[11] = pristine azobenzene; cited from earlier work
[12] = Henry reaction, 1 in acetonitrile, 2 in methanol
[13] = MeCN, Z-rich after 340 nm irradiation overnight
[14] = Toluene, Z-rich after 340 nm irradiation overnight
[15] = EtOAc, Z-rich after 340 nm irradiation overnight
[16] = MeOH, Z-rich after 340 nm irradiation overnight

SMILES: CN(CCCNC(=O)c1ccc(C(=O)NCCCN(C)CCc2ccc(/N=N\c3ccccc3)cc2)cc1)CCc1ccc(/N=N\c2ccccc2)cc1 [Compound 1-Z]
τ1/2 (thermal half-life of Z isomer) [1]: 199 h
product yield [2, 12]: about 70%
rate constant kZ [2, 12]: 1.37e-05 s⁻¹
ε340 nm ([3]; MeCN): 6780.1 M⁻¹ cm⁻¹
ε430 nm ([3]; MeCN): 2857.4 M⁻¹ cm⁻¹

ε340 nm ([3]; MeCN): 2.4 M⁻¹ cm⁻¹
ε340 nm ([3]; MeOH): 31.1 M⁻¹ cm⁻¹
SMILES: CC(=O)CC(C)=O [Acetylacetone, acetylacetone]

SMILES: CC[N+](=O)[O-] [Nitroethane, nitroethane]
ε340 nm ([3]; MeCN): 0.3 M⁻¹ cm⁻¹
ε340 nm ([3]; MeOH): 1.3 M⁻¹ cm⁻¹

SMILES: CN(CCCNC(=O)c1ccc(C(=O)NCCCN(C)CCc2ccc(N=Nc3ccccc3)cc2)cc1)CCc1ccc(N=Nc2ccccc2)cc1 [Compound 1]
ideal solvent candidates for reversible solubility changes [4]: MeCN and toluene
% E after irradiation at 430 nm (PSS) [5]: 82 % E
% Z after irradiation at 340 nm (PSS) [5]: ~88 % Z
% Z drop in the suspension [6]: 75%
τ1/2 (thermal half-life of Z isomer) [1]: 199 h
ΔG^‡ [1]: 107.4 kJ/mol
ΔH^‡ [1]: 100.3 kJ/mol
ΔS‡ [1]: −23.8 J mol^−1K^−1
product yield of Z-rich catalyst compared to its E counterpart [7]: 2.4 fold
product yield [8]: 82%
% Z by in-situ UV-induced E→Z isomerization in the reaction medium ([2]; Henry reaction mixture in acetonitrile, after 24-hour 340 nm irradiation): 48 % Z
rate constant kE-UV ([2]; Henry reaction, in-situ UV (340 nm) activated catalyst, 1 in acetonitrile, 2 in methanol): 4.24e-06 s⁻¹
yield of product ([9]; 1st Henry reaction (16 hours)): 56%
yield of product ([9]; 2nd Henry reaction (16 hours)): 57%
yield of product ([9]; third Henry reaction (24 hours)): 70%
r=[Z]max/[E]max ([10]; MeCN (acetonitrile)): 10.4 and 10.3
Solubility ([10]; MeCN, E isomer (100% E)): 2.1 g/L and 2.9 mM
Solubility [10, 13]: 22 g/L and 30 mM
Isomer (% E) ([10]; MeCN): 12 % E
r=[Z]max/[E]max ([10]; Toluene): 2.8
Solubility ([10]; Toluene, E isomer (100% E)): 5.4 g/L and 7.5 mM
Solubility [10, 14]: 15 g/L and 21 mM
Isomer (% E) ([10]; Toluene): 17 % E

SMILES: CN(CCCNC(=O)c1ccc(C(=O)NCCCN(C)CCc2ccc(/N=N/c3ccccc3)cc2)cc1)CCc1ccc(/N=N/c2ccccc2)cc1 [Compound 1-E]
% E after irradiation at 430 nm (PSS) [5]: 82 % E
ε340 nm ([3]; MeCN): 24004 M⁻¹ cm⁻¹ and 24004.3 M⁻¹ cm⁻¹
ε430 nm ([3]; MeCN): 2336.5 M⁻¹ cm⁻¹

SMILES: CN(CCCNC(=O)c1ccc(-c2ccc(C(=O)NCCCN(C)CCc3ccc(/N=N/c4ccccc4)cc3)cc2)cc1)CCc1ccc(/N=N/c2ccccc2)cc1 [Compound 2-E]
% E after irradiation at 430 nm (PSS) [5]: 84 % E
ε340 nm ([3]; MeOH): 25623 M⁻¹ cm⁻¹ and 25623.3 M⁻¹ cm⁻¹
ε430 nm ([3]; MeOH): 2375.3 M⁻¹ cm⁻¹

SMILES: CN(CCCNC(=O)c1ccc(-c2ccc(C(=O)NCCCN(C)CCc3ccc(/N=N\c4ccccc4)cc3)cc2)cc1)CCc1ccc(/N=N\c2ccccc2)cc1 [Compound 2-Z]
τ1/2 (thermal half-life of Z isomer) [1]: 84 h
product yield [2, 12]: 85%
rate constant kZ [2, 12]: 2.6e-05 s⁻¹
ε340 nm ([3]; MeOH): 2937.1 M⁻¹ cm⁻¹
ε430 nm ([3]; MeOH): 3632.2 M⁻¹ cm⁻¹

SMILES: O=[N+]([O-])/C=C/c1ccccc1 [Nitrostyrene, trans-β-nitrostyrene]
ε340 nm ([3]; MeCN): 11327.3 M⁻¹ cm⁻¹
ε340 nm ([3]; MeCN, listed as trans-β-nitrostyrene): 11327 M⁻¹ cm⁻¹
ε340 nm ([3]; MeOH): 15390.7 M⁻¹ cm⁻¹

ε340 nm ([3]; MeCN): 323.3 M⁻¹ cm⁻¹
ε340 nm ([3]; MeCN, listed as 4-nitrobenzaldehyde): 323 M⁻¹ cm⁻¹
ε340 nm ([3]; MeOH): 312.5 M⁻¹ cm⁻¹
SMILES: O=Cc1ccc([N+](=O)[O-])cc1 [Nitrobenzaldehyde, 4-nitrobenzaldehyde]

SMILES: CN(CCCNC(=O)CCCC#CC#CCCCC(=O)NCCCN(C)CCc1ccc(N=Nc2ccccc2)cc1)CCc1ccc(N=Nc2ccccc2)cc1 [Compound 4]
ideal solvent candidates for reversible solubility changes [4]: no solvent is ideal
r=[Z]max/[E]max ([10]; EtOAc): 9.4
Solubility ([10]; EtOAc, E isomer (100% E)): 2.6 g/L and 3.3 mM
Solubility [10, 15]: 24 g/L and 31 mM
Isomer (% E) ([10]; EtOAc): 23 % E
r=[Z]max/[E]max ([10]; MeCN (acetonitrile)): 10.0
Solubility ([10]; MeCN, E isomer (100% E)): 3.3 g/L and 4.3 mM
Solubility [10, 13]: 33 g/L and 43 mM
Isomer (% E) ([10]; MeCN): 9 % E
r=[Z]max/[E]max ([10]; Toluene): 13.9
Solubility ([10]; Toluene, E isomer (100% E)): 2.6 g/L and 3.3 mM
Solubility [10, 14]: 36 g/L and 46 mM
Isomer (% E) ([10]; Toluene): 55 % E

SMILES: c1ccc(N=Nc2ccccc2)cc1 [azobenzene]
% E at 430 nm (photoswitching property) [11]: 83 % E

SMILES: CN(CCCNC(=O)c1ccc(-c2ccc(C(=O)NCCCN(C)CCc3ccc(N=Nc4ccccc4)cc3)cc2)cc1)CCc1ccc(N=Nc2ccccc2)cc1 [Compound 2]
ideal solvent candidates for reversible solubility changes [4]: MeOH and EtOAc
% E after irradiation at 430 nm (PSS) [5]: 84 % E
% Z after irradiation at 340 nm (PSS) [5]: 84 % Z
% Z drop in the suspension [6]: 75%
τ1/2 (thermal half-life of Z isomer) [1]: 84 h
ΔG^‡ [1]: 105.2 kJ/mol
ΔH^‡ [1]: 75.5 kJ/mol
ΔS‡ [1]: −99.7 J mol^−1K^−1
rate constant kE-UV [2]: 1.16×10 ^−5 s^−1
r=[Z]max/[E]max ([10]; EtOAc): 6.0
Solubility ([10]; EtOAc, E isomer (100% E)): 2.4 g/L and 3.0 mM
Solubility [10, 15]: 14 g/L and 18 mM
Isomer (% E) ([10]; EtOAc): 14 % E
r=[Z]max/[E]max ([10]; MeOH (methanol)): 8.8
Solubility ([10]; MeOH, E isomer (100% E)): 1.9 g/L and 2.4 mM
Solubility [10, 16]: 17 g/L and 21 mM
Isomer (% E) ([10]; MeOH): 16 % E

SMILES: CN(CCCNC(=O)c1ccc2cc(C(=O)NCCCN(C)CCc3ccc(N=Nc4ccccc4)cc3)ccc2c1)CCc1ccc(N=Nc2ccccc2)cc1 [Compound 3]
ideal solvent candidates for reversible solubility changes [4]: MeOH and acetone
r=[Z]max/[E]max ([10]; Acetone): 5.7
Solubility ([10]; Acetone, E isomer (100% E)): 3.8 g/L and 4.9 mM
Isomer (% E) ([10]; Acetone): 14 % E
r=[Z]max/[E]max ([10]; MeOH (methanol)): 4.0
Solubility ([10]; MeOH, E isomer (100% E)): 3.9 g/L and 5.0 mM
Solubility [10, 16]: 16 g/L and 20 mM
Isomer (% E) ([10]; MeOH): 27 % E
